Values joined by “and” are separate entries in the source; they are usually repeats but may differ in a detail not shown here. Equal values may be shown once. Marks after values point to notes of the source that are not given here.
Key:
Format in all cases: cell-based
[1] = molecular target: T1, Vasopressin 1A receptor (hV1AR) (Homo sapiens, UniProt P37288); experiment: hV1AR functional antagonist assay (Ca2+ mobilization, CHO-V1AR cells); conditions: for Antagonist Effect: % inhibition of control response to 10 nM AVP; for IC50: antagonist effect, mean ± SD, n = 3
T1 construct: host or cells: CHO-V1AR cells
T1 sequence (P37288 whole entry): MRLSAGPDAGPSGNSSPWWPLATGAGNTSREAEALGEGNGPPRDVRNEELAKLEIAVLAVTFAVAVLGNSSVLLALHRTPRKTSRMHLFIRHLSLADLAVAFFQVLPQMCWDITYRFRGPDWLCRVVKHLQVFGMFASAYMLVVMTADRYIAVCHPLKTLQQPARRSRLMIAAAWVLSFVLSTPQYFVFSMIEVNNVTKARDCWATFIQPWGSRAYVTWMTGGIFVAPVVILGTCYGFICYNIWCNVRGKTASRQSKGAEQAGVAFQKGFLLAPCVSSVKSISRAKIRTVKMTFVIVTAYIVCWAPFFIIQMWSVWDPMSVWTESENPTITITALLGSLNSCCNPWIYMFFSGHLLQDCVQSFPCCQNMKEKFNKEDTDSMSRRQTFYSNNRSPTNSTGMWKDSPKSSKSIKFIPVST
Excerpt: (§1) The in-house assay protocol and experimental conditions are reported in our previous reports. The functional effect of dieckol and PFF-A was characterized based on their modulation effect on cytosolic Ca^2+ ion mobilization using a fluorimetric detection method or by measuring their effect on cAMP modulation using homogeneous time-resolved fluorescence (HTRF) detection.
Then, fluorescent probe (Fluo4, Invitrogen) mixed with probenecid in HBSS buffer (Invitrogen, Carlsbad, CA, USA) supplemented with 20 mM HEPES, pH 7.4 (Invitrogen) was added to each well, allowing to equilibrate with the cells for 60 min at 37 °C, then 15 min at 22 °C.

[2] = molecular target: T2, δ-opioid receptor (hδ-OPR) (Homo sapiens, UniProt P41143); experiment: hδ-OPR functional antagonist assay (Ca2+ mobilization, rat basophil leukemia cells); conditions: for Antagonist Effect: 50 µM; for IC50: antagonist effect, mean ± SD, n = 3; for inhibition at 150 µM: read-out: Antagonist Effect, 150 µM
T2 construct: host or cells: rat basophil leukemia cells
T2 sequence (P41143 whole entry): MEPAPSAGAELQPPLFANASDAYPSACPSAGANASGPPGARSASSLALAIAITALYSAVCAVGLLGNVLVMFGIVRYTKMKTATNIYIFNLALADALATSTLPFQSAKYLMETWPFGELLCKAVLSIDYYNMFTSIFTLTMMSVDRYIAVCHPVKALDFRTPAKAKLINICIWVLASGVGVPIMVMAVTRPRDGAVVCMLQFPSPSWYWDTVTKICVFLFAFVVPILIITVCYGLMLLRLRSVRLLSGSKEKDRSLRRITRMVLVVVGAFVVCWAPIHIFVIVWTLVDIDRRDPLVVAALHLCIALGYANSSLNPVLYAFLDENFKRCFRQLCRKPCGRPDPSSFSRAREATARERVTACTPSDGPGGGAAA
Excerpt: as §1
Thereafter, a mixture of fluorescent probe (Fluo8, AAT Bioquest) and probenecid in HBSS buffer (Invitrogen) complemented with 20 mM Hepes (Millipore) (pH 7.4) was added and plates were incubated for 60 min at 30 °C. Then, the assay plates were positioned in a FlipR Tetra microplate reader (Molecular Device, San Jose, CA, USA) for the addition of the test compound, reference agonist/antagonist, or HBSS buffer (basal control). Change in fluorescence intensity that varies proportionally to the free cytosolic Ca^2+ ion concentration was measured.

[3] = molecular target: T3, Free fatty acid receptor 1 (FFA1R) (GPR40) (Homo sapiens, UniProt O14842); experiment: FFA1R/GPR40 functional antagonist assay (Ca2+ mobilization, HEK-293 cells); conditions: HEK293, read-out: Antagonist Effect
T3 construct: host or cells: HEK-293 cells
T3 sequence (O14842 whole entry): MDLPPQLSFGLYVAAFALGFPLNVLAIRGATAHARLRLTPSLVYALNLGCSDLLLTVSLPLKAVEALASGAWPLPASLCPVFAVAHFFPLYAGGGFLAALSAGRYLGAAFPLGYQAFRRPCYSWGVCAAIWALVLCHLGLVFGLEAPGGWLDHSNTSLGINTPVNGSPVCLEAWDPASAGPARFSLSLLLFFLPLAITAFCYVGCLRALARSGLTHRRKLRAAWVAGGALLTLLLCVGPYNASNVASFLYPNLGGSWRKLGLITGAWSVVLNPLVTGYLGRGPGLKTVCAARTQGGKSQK

[4] = molecular target: T4, Alpha-2A adrenergic receptor (hα2AAR) (Homo sapiens, UniProt P08913); experiment: hα2AAR functional antagonist assay (Ca2+ mobilization, rat basophil leukemia cells); conditions: read-out: Antagonist Effect
T4 construct: host or cells: rat basophil leukemia cells
T4 sequence (P08913 1-465): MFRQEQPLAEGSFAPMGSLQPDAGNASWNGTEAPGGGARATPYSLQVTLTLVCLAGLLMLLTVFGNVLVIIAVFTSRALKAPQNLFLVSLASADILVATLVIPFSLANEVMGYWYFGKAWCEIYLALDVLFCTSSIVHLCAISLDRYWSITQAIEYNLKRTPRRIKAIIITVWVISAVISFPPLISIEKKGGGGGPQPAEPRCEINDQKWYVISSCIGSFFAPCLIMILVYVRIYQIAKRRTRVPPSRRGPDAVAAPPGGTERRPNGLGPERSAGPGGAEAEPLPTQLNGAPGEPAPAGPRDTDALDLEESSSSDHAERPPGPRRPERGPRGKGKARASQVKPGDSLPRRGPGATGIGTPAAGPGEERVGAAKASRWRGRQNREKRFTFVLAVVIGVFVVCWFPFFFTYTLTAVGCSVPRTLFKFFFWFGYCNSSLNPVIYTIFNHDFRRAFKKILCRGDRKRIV
Excerpt: as §1
(§2) The rat basophil leukemia cells were distributed in microplates at a density of 1.1 × 10^4 cells/well after suspending in a HBSS buffer (Invitrogen) containing 20 mM HEPES. Then, the fluorescent probe (Fluo8, AAT Bioquest) mixed with probenecid in HBSS buffer (Invitrogen) complemented with 20 mM Hepes (Millipore) (pH 7.4) was added into each well incubated for 60 min at 30 °C. Thereafter, the assay plates were positioned in a microplate reader (FlipR Tetra, Molecular Device) and we added test compounds, reference agonist/antagonist or HBSS buffer (basal control). Change in fluorescence intensity which varies proportionally to the free cytosolic Ca^2+ ion concentration was measured.

[5] = molecular target: T4, Alpha-2A adrenergic receptor (hα2AAR); experiment: hα2AAR functional agonist assay (Ca2+ mobilization, rat basophil leukemia cells); conditions: 100 µM; % of control response to 0.1 µM epinephrine bitartrate
Excerpt: as §1, §2

[6] = molecular target: T5, Glucagon-like peptide-1 receptor (GLP-1) (Mus musculus, UniProt O35659); experiment: GLP-1R functional agonist assay (cAMP, HTRF, βTC6 cells); conditions: 100 µM; % of control response to 100 nM GLP-1(7–37)
T5 construct: mouse GLP-1 receptor-expressed βTC6 cells; host or cells: βTC6 cells
T5 sequence (O35659 22-463): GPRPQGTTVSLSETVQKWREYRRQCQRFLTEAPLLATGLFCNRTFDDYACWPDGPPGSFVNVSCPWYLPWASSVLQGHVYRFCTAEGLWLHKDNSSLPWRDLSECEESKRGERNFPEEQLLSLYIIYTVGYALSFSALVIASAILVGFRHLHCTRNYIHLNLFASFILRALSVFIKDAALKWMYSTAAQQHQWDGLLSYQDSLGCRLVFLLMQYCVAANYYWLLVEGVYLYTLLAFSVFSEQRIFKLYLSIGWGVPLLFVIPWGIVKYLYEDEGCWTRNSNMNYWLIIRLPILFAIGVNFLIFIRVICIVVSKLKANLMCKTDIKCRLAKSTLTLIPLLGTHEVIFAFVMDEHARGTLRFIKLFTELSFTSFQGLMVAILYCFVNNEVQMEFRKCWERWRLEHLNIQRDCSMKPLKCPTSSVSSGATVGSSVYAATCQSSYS
Procedure: as §1
Functional activity of phlorotannins over hA2AR, hα2CAR, hCB1R, GLP-1R, and h5-HT1BR was determined by measuring their effects on cAMP production by the HTRF detection method using transected cells expressing human cloned receptors.
The HBSS buffer (Invitrogen) complemented with 20 mM HEPES (pH 7.4) and 500 µM IBMX was used to suspend and distribute the βTC6 cells at a density of 1.5x10^4 cells/well. The plate was then incubated for 10 min at RT in the presence of HBSS (basal and stimulated control), the test compound, or the reference agonist and antagonist. […] Following incubation, the cells were lysed and the fluorescence acceptor (D2-labeled cAMP) and fluorescence donor (anti-cAMP antibody labeled with europium cryptate) were added.

[7] = 50 µM, dieckol value flagged as apparent inhibition (at least 25% agonist effect)
[8] = 100 µM, values flagged as apparent inhibition (at least 25% agonist effect)
[9] = % inhibition of control response to 25 nM DPDPE

Compound | Antagonist Effect [1, 7] | Antagonist Effect [1, 8] | Antagonist Effect ([1]; 100 µM, values flagged as apparent inhibition (at least 25% agonist effect), listed as Phlorofucofuroeckol-A) | IC50 [1] [µM] | inhibition at 25 µM ([1]; read-out: Antagonist Effect) [%] | inhibition at 100 µM ([1]; read-out: Antagonist Effect) [%] | inhibition at 150 µM ([1]; read-out: Antagonist Effect) [%] | Antagonist Effect [2, 9] [%] | IC50 [2] [µM] | inhibition at 150 µM [2, 9] [%] | inhibition at 100 µM [3] [%] | inhibition at 100 µM [4] [%] | Agonist Effect [5] [%] | Agonist Effect [6] [%] | inhibition at 100 µM ([2]; read-out: Antagonist Effect, 100 µM, % inhibition of control response to 25 nM DPDPE) [%]
Oc1cc(O)cc(Oc2c(O)cc(O)c3c2Oc2c(O)cc4oc5c(Oc6cc(O)cc(O)c6)c(O)cc(O)c5c4c2O3)c1 [PFF-A, phlorofucofuroeckol-A] | 52.80 ± 8.09% | 56.90 ± 5.37 ^c % | 56.90 ± 5.37 ^b % | 42.25 ± 0.41 | 35.7 ± 3.88 | 56.9 ± 5.37 | 56.1 ± 4.72 | 89.03 ± 0.70 | < 50 | 93.7 ± 6.67 | 30.1 ± 0.78 | 20.9 ± 1.77 | −0.5 ± 0.85 | −15.5 ± 2.55 | –
Oc1cc(O)cc(Oc2c(O)cc(O)c3c2Oc2c(O)cc(Oc4c(O)cc(Oc5c(O)cc(O)c6c5Oc5c(O)cc(O)cc5O6)cc4O)cc2O3)c1 [Dieckol, dieckol] | 41.53 ± 7.39 ^c % | 57.77 ± 0.32 ^b % and 57.77 ± 0.32 ^c % | – | 82.7 ± 8.73 | – | 57.77 ± 0.32 | 68.8 ± 0.85 | 23.23 ± 4.04 | 80.5 ± 13.7 | 100 ± 1.53 | 22.6 ± 5.44 | 46.1 ± 20.1 | 13.4 ± 19.87 | −16.3 ± 1.13 | 67 ± 0.92
